Experimental data taken from US4314028A, “Fermentation process for producing tallysomycin compounds” (priority 1980, dated 1982).

Key:
[1] = test system: Aspergillus fumigatus IAM 2593; test: MIC, two-fold agar dilution method; format: cell-based; details: Sabouraud agar
Protocol: (§1) The minimum inhibitory concentrations (MIC) of the semibiosynthetic tallysomycin derivatives of the present invention were determined against fungi and gram-positive, gram-negative and acid-fast bacteria by the two-fold agar dilution method. Nutrient agar was used for bacteria and Sabouraud agar for fungi. The results are shown in the table below comparatively with tallysomycin A and B.

[2] = test system: Bacillus subtilis PCI 219; test: MIC, two-fold agar dilution method; format: cell-based; details: nutrient agar
Protocol: as §1

[3] = test system: Candida albicans IAM 4888; test: MIC, two-fold agar dilution method; format: cell-based; details: Sabouraud agar
Protocol: as §1

[4] = test system: Escherichia coli NIHJ; test: MIC, two-fold agar dilution method; format: cell-based; details: nutrient agar
Protocol: as §1

[5] = test system: Mycobacterium 607; test: MIC, two-fold agar dilution method; format: cell-based; details: nutrient agar
Protocol: as §1

[6] = test system: Proteus mirabilis A9554; test: MIC, two-fold agar dilution method; format: cell-based; details: nutrient agar
Protocol: as §1

[7] = test system: Sarcina lutea PCI1001; test: MIC, two-fold agar dilution method; format: cell-based; details: nutrient agar
Protocol: as §1

[8] = test system: Staphylococcus aureus Smith; test: MIC, two-fold agar dilution method; format: cell-based; details: nutrient agar
Protocol: as §1

[9] = test system: Mycobacterium smegmatis strain M6-3; test: Relative antibacterial potency, paper-disc agar diffusion method; format: cell-based; details: relative to tallysomycin A standard=1000 mcg/mg
Protocol: The relative antibacterial potencies (tallysomycin A standard=1000 mcg/mg) of the tallysomycin derivatives were determined by the paper-disc agar diffusion method using Mycobacterium smegmatis strain M6-3 as the assay organism.

[10] = test system: lysogenic bacterium E. coli W1709 (λ); test: Prophage induction of lysogenic bacterium (ILB activity); format: cell-based; details: t/c ratio of plaque counts greater than 3.0
Protocol: The activity of prophage induction of lysogenic bacterium E. coli W1709 (λ) was determined according to the method disclosed by Lein et al. in Nature 196: 783-784 (1962). The plaque count was made on the agar plate containing test compound (t) and control plate (c). A t/c ratio of the plaque counts of greater than 3.0 was defined to be a significant level and lysogenic induction activity (ILB activity) was expressed by the minimum inducible concentration of the test compound.

[11] = test system: Lymphocytic leukemia P388; test: animal or person; format: in vivo, BDF1 mice; details: copper-chelated form unless otherwise stated; for Antitumor activity P388 (ED125): ip, once daily 9 days, dose giving T/C survival of 125%; for Antitumor therapeutic index P388: single dose LD50/ED125
Text: (§2) The antitumor activity of the tallysomycin derivatives was examined in four experimental tumor systems in mice. Lymphocytic leukemia P388 and Lewis lung carcinoma were implanted intraperitoneally into BDF1 mice of either sex at an inoculum size of 3×10^5 and 5×10^5 cells per mouse, respectively. Sarcoma 180 ascites tumor was inoculated intraperitoneally into male dd-strain mice with […] per mouse. Melanotic melanoma B16 was implanted subcutaneously into BDF1 mice with 5×10^5 cells per mouse. Twenty-four hours after the implantation of tumor cells, graded doses of test compounds were administered to mice intraperitoneally in an injection volume of 0.2 ml. per 10 grams of body weight. Test compounds were given once daily for 9 days (qd 1→9 schedule) except for the mice inoculated with Lewis lung carcinoma which were treated for 11 days (qd 1→11). Death or survival of the treated and non-treated (control) animals was recorded daily during the observation period of 45 days after the implantation of tumor cells, and the median survival time was calculated for each of the test (T) and control (C) groups. […] The actual dose giving a T/C of 125% was estimated by linear regression analysis and defined as the effective dose 125 or ED125. The effective dose 150 (ED150) was employed for the evaluation of antitumor effect against Sarcoma 180. In the B16 melanoma experiment the tumor size was measured on day 16 after tumor inoculation, and the dose giving 50% inhibition of tumor growth (ID50) was calculated from regression lines.
(§3) The antitumor therapeutic index was calculated for each derivative from the ratio of toxicity and antitumor activity.

[12] = test system: Sarcoma 180; test: animal or person; format: in vivo, dd-strain mice; details: copper-chelated form unless otherwise stated; for Antitumor activity S180 (ED150): ip, once daily 9 days, effective dose 150, survival; for Antitumor therapeutic index S180: single dose LD50/ED150
Text: as §2, §3

[13] = test system: Melanotic melanoma B16; test: Antitumor activity in mice, melanotic melanoma B16; format: in vivo, BDF1 mice; details: copper-chelated form unless otherwise stated; for Antitumor activity B16 (ID50): ip, once daily 9 days, 50% inhibition of tumor growth, day 16, 23040 min; for Antitumor therapeutic index B16: single dose LD50/ID50
Text: as §2, §3

[14] = Acute toxicity, single dose LD50; format: in vivo, dd mice; details: ip, 30 days observation, copper-chelated form unless otherwise stated
Protocol: Graded doses of test compounds were administered intraperitoneally to groups of dd mice. The injection was given one time only or once daily for 9 consecutive days. Death or survival of the animals was recorded for 30 days after the last dose of test compound to calculate the single or multiple median lethal dose (LD50).

| SMILES | minimum inhibitory concentration (MIC) [1] | minimum inhibitory concentration (MIC) [2] | minimum inhibitory concentration (MIC) [3] | minimum inhibitory concentration (MIC) [4] | minimum inhibitory concentration (MIC) [5] | minimum inhibitory concentration (MIC) [6] | minimum inhibitory concentration (MIC) [7] | minimum inhibitory concentration (MIC) [8] | Antibacterial potency [9] | ILB activity (minimum inducible concentration) [10] [µg/mL] | Antitumor activity P388 (ED125) [11] [mg/kg/day] | Antitumor therapeutic index P388 [11] | Antitumor activity S180 (ED150) [12] [mg/kg/day] | Antitumor therapeutic index S180 [12] | Antitumor activity B16 (ID50) [13] [mg/kg/day] | Antitumor therapeutic index B16 [13] | LD50 single dose [14] [mg/kg/day] |
| --- | --- | --- | --- | --- | --- | --- | --- | --- | --- | --- | --- | --- | --- | --- | --- | --- | --- |
| Cc1c(N)nc([C@H](CC(N)=O)NC[C@H](N)C(N)=O)nc1C(=O)N[C@H](C(=O)N[C@H](C)[C@@H](O)CC(=O)N[C@H](C(=O)NC(O[C@@H]1O[C@@H](C)[C@@H](N)[C@@H](O)[C@H]1O)C(O)c1nc(-c2nc(C(=O)NCCCC(N)CC(=O)NCCCNCCCCN)cs2)cs1)[C@@H](C)O)[C@H](O[C@@H]1O[C@@H](CO)[C@@H](O)[C@H](O)[C@@H]1O[C@H]1O[C@H](CO)[C@@H](O)[C@H](OC(N)=O)[C@@H]1O)c1c[nH]cn1 (some centres unmarked) [Tallysomycin A, reference compound] | 1.6 | < 0.003 | 12.5 | 0.05 | 0.2 | 0.4 | 0.05 | 0.1 | 1,000 μ/mg | 0.00125 |  |  |  |  |  |  |  |
| Cc1c(N)nc([C@H](CC(N)=O)NC[C@@H](N)C(N)=O)nc1C(=O)N[C@H](C(=O)N[C@H](C)[C@@H](O)CC(=O)N[C@@H](C(=O)NC(O[C@@H]1O[C@@H](C)[C@@H](N)[C@@H](O)[C@H]1O)C(O)c1nc(-c2nc(C(=O)NCCCNCCCCN)cs2)cs1)[C@@H](C)O)C(O[C@@H]1O[C@@H](CO)[C@H](O)[C@@H](O)[C@@H]1O[C@H]1O[C@H](CO)[C@@H](O)[C@@H](OC(N)=O)[C@@H]1O)c1cnc[nH]1 (some centres unmarked) [Tallysomycin B, reference compound] | 0.8 | 0.006 | 6.3 | 0.2 | 0.2 | 0.2 | 0.4 | 0.4 | 900 μ/mg | 0.01 |  |  |  |  |  |  |  |
| Cc1c(N)nc(C(CC(N)=O)NCC(N)C(N)=O)nc1C(=O)NC(C(=O)NC(C)C(O)CC(=O)NC(C(=O)NC(OC1OC(C)C(N)C(O)C1O)C(O)c1nc(-c2nc(C(=O)NCCCC(N)CC(=O)NCCCN)cs2)cs1)C(C)O)C(OC1OC(CO)C(O)C(O)C1OC1OC(CO)C(O)C(OC(N)=O)C1O)c1c[nH]cn1 (centres unmarked) [Tallysomycin S1a] | 0.8 | < 0.003 | 3.1 | 0.1 | 0.012 | 0.4 | 0.1 | 0.4 | 1,075 μ/mg | 0.16 | 1.2 | 21 | 0.07 | 357 | 0.84 | 30 | 25 |
| Cc1c(N)nc(C(CC(N)=O)NCC(N)C(N)=O)nc1C(=O)NC(C(=O)NC(C)C(O)CC(=O)NC(C(=O)NC(OC1OC(C)C(N)C(O)C1O)C(O)c1nc(-c2nc(C(=O)NCC(O)CN)cs2)cs1)C(C)O)C(OC1OC(CO)C(O)C(O)C1OC1OC(CO)C(O)C(OC(N)=O)C1O)c1c[nH]cn1 (centres unmarked) [Tallysomycin S4b] | 0.8 | 0.006 | 25 | 0.4 | 0.003 | 0.4 | 3.1 | 0.8 | 405 μ/mg |  | > 3.0 | < 4 | 0.13 | 100 | 0.50 | 26 | 13 |
| Cc1c(N)nc(C(CC(N)=O)NCC(N)C(N)=O)nc1C(=O)NC(C(=O)NC(C)C(O)CC(=O)NC(C(=O)NC(OC1OC(C)C(N)C(O)C1O)C(O)c1nc(-c2nc(C(=O)NCCCC(N)CC(=O)NCCCN(CCO)CCO)cs2)cs1)C(C)O)C(OC1OC(CO)C(O)C(O)C1OC1OC(CO)C(O)C(OC(N)=O)C1O)c1c[nH]cn1 (centres unmarked) [Tallysomycin S8a] | 0.8 | 0.006 | 12.5 | 0.1 | 0.1 | 0.4 | 0.4 | 0.2 | 550 μ/mg | 0.005 | 0.78 | 54 |  |  |  |  | 42 |
| CNCCCNC(=O)CC(N)CCCNC(=O)c1csc(-c2csc(C(O)C(NC(=O)C(NC(=O)CC(O)C(C)NC(=O)C(NC(=O)c3nc(C(CC(N)=O)NCC(N)C(N)=O)nc(N)c3C)C(OC3OC(CO)C(O)C(O)C3OC3OC(CO)C(O)C(OC(N)=O)C3O)c3c[nH]cn3)C(C)O)OC3OC(C)C(N)C(O)C3O)n2)n1 (centres unmarked) [Tallysomycin S11a] | 0.8 | 0.025 | 1.6 | 0.1 | 0.1 | 0.2 | 0.2 | 0.8 | 570 μ/mg | 0.08 | 0.60 | 30 |  |  |  |  | 18 |
| Cc1c(N)nc(C(CC(N)=O)NCC(N)C(N)=O)nc1C(=O)NC(C(=O)NC(C)C(O)CC(=O)NC(C(=O)NC(OC1OC(C)C(N)C(O)C1O)C(O)c1nc(-c2nc(C(=O)NCCCC(N)CC(=O)NCCCNC(C)c3ccccc3)cs2)cs1)C(C)O)C(OC1OC(CO)C(O)C(O)C1OC1OC(CO)C(O)C(OC(N)=O)C1O)c1c[nH]cn1 (centres unmarked) [Tallysomycin S14a] | 3.1 | 0.1 | 50 | 0.2 | 0.1 | 3.1 | 0.8 | 0.8 | 1,300 μ/mg | 0.01 |  |  |  |  |  |  |  |
